Data from US12534465B2, “5H-pyrrolo[3,2-d]pyrimidine-2,4-diamino compounds and antibody conjugates thereof” (SUTRO BIOPHARMA, INC., priority 2019, dated 2026).

What was measured:
[1] = molecular target: T1, human TLR7 (Homo sapiens, UniProt Q9NYK1); experiment: HEK293 SEAP reporter assay, TLR panel (Example 10); type: cell-based; conditions: 16 hrs
T1 construct: host or cells: HEK293
T1 sequence (Q9NYK1 27-1049): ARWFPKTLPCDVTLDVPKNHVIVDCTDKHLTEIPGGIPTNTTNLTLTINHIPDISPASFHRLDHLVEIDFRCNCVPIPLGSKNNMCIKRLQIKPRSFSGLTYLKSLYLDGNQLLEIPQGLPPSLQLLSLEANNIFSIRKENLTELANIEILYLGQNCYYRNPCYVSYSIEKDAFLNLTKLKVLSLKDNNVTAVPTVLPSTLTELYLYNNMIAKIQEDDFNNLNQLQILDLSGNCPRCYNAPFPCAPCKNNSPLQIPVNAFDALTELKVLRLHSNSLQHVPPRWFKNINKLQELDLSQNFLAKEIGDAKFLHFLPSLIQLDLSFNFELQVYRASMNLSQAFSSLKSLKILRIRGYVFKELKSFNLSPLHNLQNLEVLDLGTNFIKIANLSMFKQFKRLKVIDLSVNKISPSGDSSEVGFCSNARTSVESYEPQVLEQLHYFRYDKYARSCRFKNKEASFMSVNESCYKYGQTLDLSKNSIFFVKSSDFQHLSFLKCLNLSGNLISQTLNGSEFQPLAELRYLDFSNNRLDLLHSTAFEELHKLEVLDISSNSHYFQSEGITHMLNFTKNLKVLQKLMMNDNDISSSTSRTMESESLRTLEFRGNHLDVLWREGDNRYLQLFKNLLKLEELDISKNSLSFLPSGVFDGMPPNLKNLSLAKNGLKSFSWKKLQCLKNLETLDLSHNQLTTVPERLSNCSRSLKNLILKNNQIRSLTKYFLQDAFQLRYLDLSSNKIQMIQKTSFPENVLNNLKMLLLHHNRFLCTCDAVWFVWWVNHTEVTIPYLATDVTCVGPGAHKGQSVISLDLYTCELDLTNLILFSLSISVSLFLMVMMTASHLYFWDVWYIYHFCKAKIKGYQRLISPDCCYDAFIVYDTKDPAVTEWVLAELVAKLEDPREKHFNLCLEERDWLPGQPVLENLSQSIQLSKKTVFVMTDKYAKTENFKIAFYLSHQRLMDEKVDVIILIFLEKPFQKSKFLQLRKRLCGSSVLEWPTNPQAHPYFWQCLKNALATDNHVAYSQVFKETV
Source text: (§1) In this example, the activity of the compound 10 to stimulate different human and mouse TLR pathways was investigated on HEK293 cells transfected with inducible SEAP (secreted embryonic alkaline phosphatase) reporter genes and also expressing different human TLRs (TLR2, TLR3, TLR4, TLR5, TLR7, TLR8, TLR9) or mouse TLRs (TLR2, TLR3, TLR4, TLR5, TLR7, TLR8, TLR13).
(§2) HEK293 reporter cell lines were purchased from Invivogen and cell lines were maintained in manufacture recommended culture medium with required supplemental antibiotics. On the day of assay, the cells were harvested with Accutase and counted by the Vi-CELL Cell Viability Analyzers. Cells were resuspended in HEK blue detection medium and a total of 10000 cells were seeded in each well of a 384-well flat bottom plate. Serial dilutions of compound 10 and compound 1 was added into treatment wells. Assay plates were cultured at 37° C. in a CO2 incubator for 16 hrs. HEK-Blue™ Detection medium changes to a purple/blue color in the presence of secreted SEAP, which can be detected by spectrophotometry at 620-655 nm. Data was fitted with non-linear regression analysis, using a log(inhibitor) vs. response-variable slope, 3-parameter fit with GraphPad Prism.

[2] = molecular target: T2, mouse TLR7 (Mus musculus, UniProt P58681); experiment: HEK293 SEAP reporter assay, TLR panel (Example 10); type: cell-based; conditions: 16 hrs
T2 construct: host or cells: HEK293
T2 sequence (P58681 27-1050): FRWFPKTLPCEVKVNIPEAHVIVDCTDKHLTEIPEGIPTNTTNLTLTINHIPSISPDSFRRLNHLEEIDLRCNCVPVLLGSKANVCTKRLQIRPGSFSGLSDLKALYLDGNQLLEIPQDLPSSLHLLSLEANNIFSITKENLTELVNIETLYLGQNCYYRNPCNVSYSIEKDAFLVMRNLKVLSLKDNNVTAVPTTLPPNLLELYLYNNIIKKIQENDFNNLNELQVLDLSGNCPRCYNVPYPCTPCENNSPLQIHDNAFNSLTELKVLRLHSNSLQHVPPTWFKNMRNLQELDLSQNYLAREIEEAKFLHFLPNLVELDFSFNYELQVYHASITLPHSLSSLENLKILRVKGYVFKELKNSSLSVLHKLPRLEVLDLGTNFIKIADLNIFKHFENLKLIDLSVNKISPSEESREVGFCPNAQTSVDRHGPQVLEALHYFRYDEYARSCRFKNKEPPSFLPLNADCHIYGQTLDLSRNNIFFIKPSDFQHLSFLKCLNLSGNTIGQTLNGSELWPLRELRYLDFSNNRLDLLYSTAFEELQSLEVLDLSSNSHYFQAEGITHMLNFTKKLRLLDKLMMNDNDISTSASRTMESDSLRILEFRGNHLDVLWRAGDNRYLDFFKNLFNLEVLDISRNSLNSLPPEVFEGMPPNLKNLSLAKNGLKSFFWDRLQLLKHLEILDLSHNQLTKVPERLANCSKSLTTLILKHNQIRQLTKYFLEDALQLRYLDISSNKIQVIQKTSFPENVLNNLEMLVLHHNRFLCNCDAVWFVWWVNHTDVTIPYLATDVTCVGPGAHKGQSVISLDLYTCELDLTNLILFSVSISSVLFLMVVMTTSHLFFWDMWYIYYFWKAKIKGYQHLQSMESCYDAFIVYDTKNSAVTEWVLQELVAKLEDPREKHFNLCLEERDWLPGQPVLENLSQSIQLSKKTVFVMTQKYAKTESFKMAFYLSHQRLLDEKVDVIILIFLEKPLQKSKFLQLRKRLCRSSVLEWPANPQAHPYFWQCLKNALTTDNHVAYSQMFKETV
Source text: as §1, §2

Row | EC50 [1] [nM] | EC50 [2] [nM] | Structure (SMILES)
1 | 11 | 22.9 | CCCCCNc1nc(N)nc2ccn(Cc3ccc(CN4CC5(CNCCO5)C4)cc3OC)c12 [Compound 10, 5-[[2-methoxy-4-(5-oxa-2,8-diazaspiro[3.5]nonan-2-ylmethyl)phenyl]methyl]-N4-pentyl-pyrrolo[3,2-d]pyrimidine-2,4-diamine]
2 | 2.17 | 2.6 | CCCCCNc1nc(N)nc2ccn(Cc3ccc(CN4CCNCC4)cc3OC)c12 [Compound 1, 5-(2-methoxy-4-(piperazin-1-ylmethyl)benzyl)-N4-pentyl-5H-pyrrolo[3,2-d]pyrimidine-2,4-diamine, reference compound]
